The values below are quoted from earlier work in patent publication US6569457B2, “Enteric coated pharmaceutical tablet and method of manufacturing” (priority 1998, dated 2003).

Consider `O=c1[nH]cnc2c1ncn2C1CCC(CO)O1` (stereo not shown) [ddl, 2′,3′-dideoxyinosine], for which the “degradation at acidic pH” value is “degrades rapidly”.
